Experimental data from US20070219203A1, “Arylalkylamino-substituted quinazoline analogues” (Neurogen Corporation, priority 2004, published 2007).

Target: T1, human capsaicin receptor (Homo sapiens, UniProt Q8NER1)
T1 construct: expressed in transfected cells
Test: Calcium mobilization assay, antagonist activity (Example 6)
Assay type: cell-based
Details: 50% decrease in fluorescence response of cells expressing human capsaicin receptor exposed to capsaicin
Method: A cDNA encoding full length human capsaicin receptor (SEQ ID NO:1, 2 or 3 of U.S. Pat. No. 6,482,611) is subcloned in the plasmid pBK-CMV (Stratagene, La Jolla, Calif.) for recombinant expression in mammalian cells.
Human embryonic kidney (HEK293) cells are transfected with the pBK-CMV expression construct encoding the full length human capsaicin receptor using standard methods. The transfected cells are selected for two weeks in media containing G418 (400 μg/ml) to obtain a pool of stably transfected cells. Independent clones are isolated from this pool by limiting dilution to obtain clonal stable cell lines for use in subsequent experiments.
Cells transfected with expression plasmids (as described in Example 4) and thereby expressing human capsaicin receptor are seeded and grown to 70-90% confluency in FALCON black-walled, clear-bottomed 96-well plates (#3904, BECTON-DICKINSON, Franklin Lakes, N.J.). The culture medium is emptied from the 96 well plates and […] calcium sensitive dye (Molecular Probes, Eugene, Oreg.) is added to each well (dye solution: 1 mg […], 440 μL DMSO and 440 μl 20% pluronic acid in DMSO, diluted 1:250 in Krebs-Ringer HEPES (KRH) buffer (25 mM HEPES, 5 mM KCl, 0.96 mM NaH2PO4, 1 mM MgSO4, 2 mM CaCl2, 5 mM glucose, 1 mM probenecid, pH 7.4), 50 μl diluted solution per well). Plates are covered with aluminum foil and incubated at 37° C. for 1-2 hours in an environment containing 5% CO2. After the incubation, the dye is emptied from the plates, and the cells are washed once with KRH buffer, and resuspended in KRH buffer.
To measure the ability of a test compound to agonize or antagonize a calcium mobilization response in cells expressing capsaicin receptors to capsaicin or other vanilloid agonist, the EC50 of the agonist capsaicin is first determined. An additional 20 μl of KRH buffer and 1 μl DMSO is added to each well of cells, prepared as described above. 100 μl capsaicin in KRH buffer is automatically transferred by the FLIPR instrument to each well. Capsaicin-induced calcium mobilization is monitored using either FLUOROSKAN ASCENT (Labsystems; Franklin, Mass.) or FLIPR (fluorometric imaging plate reader system; Molecular Devices, Sunnyvale, Calif.) instruments. Data obtained between 30 and 60 seconds after agonist application are used to generate an 8-point concentration response curve, with final capsaicin concentrations of 1 nM to 3 μM. KALEIDAGRAPH software (Synergy Software, Reading, Pa.) is used to fit the data to the equation: y=a*(1/(1+(b/x)^c)) to determine the 50% excitatory concentration (EC50) for the response. In this equation, y is the maximum fluorescence signal, x is the concentration of the agonist or antagonist (in this case, capsaicin), a is the Emax, b corresponds to the EC50 value and c is the Hill coefficient. Determination of Agonist Activity
Test compounds are dissolved in DMSO, diluted in 20 μl KRH buffer so that the final concentration of test compounds in the assay well is between 1 μM and 5 μM, and added to cells prepared as described above. The 96 well plates containing prepared cells and test compounds are incubated in the dark, at room temperature for 0.5 to 6 hours. It is important that the incubation not continue beyond 6 hours. Just prior to determining the fluorescence response, 100 μl capsaicin in KRH buffer at twice the EC50 concentration determined as described above is automatically added by the FLIPR instrument to each well of the 96 well plate for a final sample volume of 200 μl and a final capsaicin concentration equal to the EC50. The final concentration of test compounds in the assay wells is between 1 μM and 5 μM. […] The concentration of antagonist required to provide a 50% decrease, relative to the response observed in the presence of capsaicin and without antagonist, is the IC50 for the antagonist, and is preferably below 1 micromolar, 100 nanomolar, 10 nanomolar or 1 nanomolar.

T1 sequence (Q8NER1 whole entry): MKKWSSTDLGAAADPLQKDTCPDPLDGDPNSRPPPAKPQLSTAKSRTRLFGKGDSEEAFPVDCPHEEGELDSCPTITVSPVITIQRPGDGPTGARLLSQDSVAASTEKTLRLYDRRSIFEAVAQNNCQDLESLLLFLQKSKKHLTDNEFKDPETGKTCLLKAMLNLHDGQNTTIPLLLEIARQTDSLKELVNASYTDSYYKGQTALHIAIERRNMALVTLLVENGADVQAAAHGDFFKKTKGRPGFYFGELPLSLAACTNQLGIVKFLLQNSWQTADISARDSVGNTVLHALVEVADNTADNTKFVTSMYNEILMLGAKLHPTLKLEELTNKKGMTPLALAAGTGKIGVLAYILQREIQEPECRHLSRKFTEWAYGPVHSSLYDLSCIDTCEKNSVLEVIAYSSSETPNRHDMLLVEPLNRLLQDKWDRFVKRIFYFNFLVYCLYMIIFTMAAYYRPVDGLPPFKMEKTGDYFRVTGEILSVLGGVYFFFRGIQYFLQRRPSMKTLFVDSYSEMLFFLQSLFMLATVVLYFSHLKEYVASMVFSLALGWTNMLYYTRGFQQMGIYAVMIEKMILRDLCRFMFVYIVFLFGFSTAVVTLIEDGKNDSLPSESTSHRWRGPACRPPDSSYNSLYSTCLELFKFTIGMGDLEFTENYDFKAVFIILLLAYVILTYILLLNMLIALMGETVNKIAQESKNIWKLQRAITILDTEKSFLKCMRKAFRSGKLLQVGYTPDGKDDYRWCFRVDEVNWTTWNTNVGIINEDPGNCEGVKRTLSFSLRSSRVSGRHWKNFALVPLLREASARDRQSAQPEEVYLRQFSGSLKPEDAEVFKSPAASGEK

| Structure (SMILES) | IC50 (Table I) [nM] | IC50 (Table II) [nM] |
| --- | --- | --- |
| CC(C)COCc1nc(NC(=O)Cc2ccc(F)cc2)c2ccc(-c3ncccc3C(F)(F)F)nc2n1 [Compound 59, 2-(4-fluorophenyl)-N-{2-(isobutoxymethyl)-7-[3-(trifluoromethyl)pyridin-2-yl]pyrido[2,3-d]pyrimidin-4-yl}acetamide] | ≤ 1000 |  |
| CC(C)COCc1nc(NCC(=O)c2cccc(Cl)c2)c2ccc(-c3ncccc3C(F)(F)F)nc2n1 [Compound 60, 1-(3-chlorophenyl)-2-({2-(isobutoxymethyl)-7-[3-(trifluoromethyl)pyridin-2-yl]pyrido[2,3-d]pyrimidin-4-yl}amino)ethanone] | ≤ 1000 |  |
| CC(C)COCc1nc(NC2Cc3ccccc3C2)c2ccc(-c3ncccc3Cl)nc2n1 [Compound 61, 7-(3-chloropyridin-2-yl)-N-(2,3-dihydro-1H-inden-2-yl)-2-(isobutoxymethyl)pyrido[2,3-d]pyrimidin-4-amine] | ≤ 1000 |  |
| CCOCc1nc(NC2Cc3ccccc3C2)c2ccc(-c3ncccc3Cl)nc2n1 [Compound 62, 7-(3-chloropyridin-2-yl)-N-(2,3-dihydro-1H-inden-2-yl)-2-(ethoxymethyl)pyrido[2,3-d]pyrimidin-4-amine] | ≤ 1000 |  |
| FC(F)(F)c1cccnc1-c1ccc2c(NCCCc3ccccc3)ncnc2c1 [Compound 63, (3-Phenyl-propyl)-[7-(3-trifluoromethyl-pyridin-2-yl)-quinazolin-4-yl]-amine] |  | ≤ 1000 |
| Cc1ccc(CCNc2ncnc3cc(-c4ncccc4C(F)(F)F)ccc23)cc1 [Compound 64, (2-p-Tolyl-ethyl)-[7-(3-trifluoromethyl-pyridin-2-yl)-quinazolin-4-yl]-amine] |  | ≤ 1000 |
| Cc1ccccc1CCNc1ncnc2cc(-c3ncccc3C(F)(F)F)ccc12 [Compound 65, (2-o-Tolyl-ethyl)-[7-(3-trifluoromethyl-pyridin-2-yl)-quinazolin-4-yl]-amine] |  | ≤ 1000 |
| Cc1cccc(CCNc2ncnc3cc(-c4ncccc4C(F)(F)F)ccc23)c1 [Compound 66, (2-m-Tolyl-ethyl)-[7-(3-trifluoromethyl-pyridin-2-yl)-quinazolin-4-yl]-amine] |  | ≤ 1000 |
| CCC(CNc1ncnc2cc(-c3ncccc3C(F)(F)F)ccc12)c1ccccc1 (stereo not shown) [Compound 68, (2-Phenyl-butyl)-[7-(3-trifluoromethyl-pyridin-2-yl)-quinazolin-4-yl]-amine] |  | ≤ 1000 |
| CCCC(CNc1ncnc2cc(-c3ncccc3C(F)(F)F)ccc12)c1ccccc1 (stereo not shown) [Compound 69, (2-Phenyl-pentyl)-[7-(3-trifluoromethyl-pyridin-2-yl)-quinazolin-4-yl]-amine] |  | ≤ 1000 |
| CCCCC(CNc1ncnc2cc(-c3ncccc3C(F)(F)F)ccc12)c1ccccc1 (stereo not shown) [Compound 70, (2-Phenyl-hexyl)-[7-(3-trifluoromethyl-pyridin-2-yl)-quinazolin-4-yl]-amine] |  | ≤ 1000 |
| CC(C)CC(CNc1ncnc2cc(-c3ncccc3C(F)(F)F)ccc12)c1ccccc1 (stereo not shown) [Compound 72, (4-Methyl-2-phenyl-pentyl)-[7-(3-trifluoromethyl-pyridin-2-yl)-quinazolin-4-yl]-amine] |  | ≤ 1000 |
| CCCCCC(CNc1ncnc2cc(-c3ncccc3C(F)(F)F)ccc12)c1ccccc1 (stereo not shown) [Compound 73, (2-Phenyl-heptyl)-[7-(3-trifluoromethyl-pyridin-2-yl)-quinazolin-4-yl]-amine] |  | ≤ 1000 |
| FC(F)(F)c1cccnc1-c1ccc2c(NC3Cc4ccccc4C3)ncnc2c1 [Compound 76, Indan-2-yl-[7-(3-trifluoromethyl-pyridin-2-yl)-quinazolin-4-yl]-amine] |  | ≤ 1000 |
| FC(F)(F)c1cccnc1-c1ccc2c(NC3CCc4ccccc4C3)ncnc2c1 (stereo not shown) [Compound 77, (1,2,3,4-Tetrahydro-naphthalen-2-yl)-[7-(3-trifluoromethyl-pyridin-2-yl)-quinazolin-4-yl]-amine] |  | ≤ 1000 |
| FC(F)(F)c1cccnc1-c1ccc2c(NC3CCc4ccccc43)ncnc2c1 (stereo not shown) [Compound 78, Indan-1-yl-[7-(3-trifluoromethyl-pyridin-2-yl)-quinazolin-4-yl]-amine] |  | ≤ 1000 |
| FC(F)(F)c1cccnc1-c1ccc2c(N[C@H]3CCCc4ccccc43)ncnc2c1 [Compound 81, (1,2,3,4-Tetrahydro-naphthalen-1-yl)-[7-(3-trifluoromethyl-pyridin-2-yl)-quinazolin-4-yl]-amine] |  | ≤ 1000 |
| FC(F)(F)c1cccnc1-c1ccc2c(NCCc3ccccc3)nc(CN3CCSCC3)nc2c1 [Compound 97, Phenethyl-[2-thiomorpholin-4-ylmethyl-7-(3-trifluoromethyl-pyridin-2-yl)-quinazolin-4-yl]-amine] |  | ≤ 1000 |
| CC1(C)CCCN(Cc2nc(NCCc3ccccc3)c3ccc(-c4ncccc4C(F)(F)F)cc3n2)C1 [Compound 100, [2(3,3-Dimethyl-piperidin-1-ylmethyl)-7-(3-trifluoromethyl-pyridin-2-yl)-quinazolin-4-yl]-phenethyl-amine] |  | ≤ 1000 |
| FC(F)(F)c1cccnc1-c1ccc2c(NCCc3ccccc3)nc(CN3CCCCCCC3)nc2c1 [Compound 103, [2-Azocan-1-ylmethyl-7-(3-trifluoromethyl-pyridin-2-yl)-quinazolin-4-yl]-phenethyl-amine] |  | ≤ 1000 |
| CC1CCN(Cc2nc(NCCc3ccccc3)c3ccc(-c4ncccc4C(F)(F)F)cc3n2)CC(C)(C)C1 (stereo not shown) [Compound 106, Phenethyl-[7-(3-trifluoromethyl-pyridin-2-yl)-2-(3,3,5-trimethyl-azepan-1-ylmethyl)-quinazolin-4-yl]-amine] |  | ≤ 1000 |
| Cc1ccccc1CCNc1nc(CN2CCC(C)CC(C)(C)C2)nc2cc(-c3ncccc3C(F)(F)F)ccc12 (stereo not shown) [Compound 107, (2-o-Tolyl-ethyl)-[7-(3-trifluoromethyl-pyridin-2-yl)-2-(3,3,5-trimethyl-azepan-1-ylmethyl)quinazolin-4-yl]-amine] |  | ≤ 1000 |
| Cc1ccccc1CCNc1nc(CN2CCC3(CC2)OCCO3)nc2cc(-c3ncccc3C(F)(F)F)ccc12 [Compound 110, [2-(1,4-Dioxa-8-aza-spiro[4.5]dec-8-ylmethyl)-7-(3-trifluoromethyl-pyridin-2-yl)-quinazolin-4-yl]-(2-o-tolyl-ethyl)-amine] |  | ≤ 1000 |
| C=CCN(CC=C)Cc1nc(NCCc2ccccc2)c2ccc(-c3ncccc3C(F)(F)F)cc2n1 [Compound 130, [2-Diallylaminomethyl-7-(3-trifluoromethyl-pyridin-2-yl)-quinazolin-4-yl]-phenethyl-amine] |  | ≤ 1000 |
| CCCN(Cc1nc(NCCc2ccccc2C)c2ccc(-c3ncccc3C(F)(F)F)cc2n1)CC1CC1 [Compound 140, [2-[(Cyclopropylmethyl-propyl-amino)-methyl]-7-(3-trifluoromethyl-pyridin-2-yl)-quinazolin-4-yl]-(2-o-tolyl-ethyl)-amine] |  | ≤ 1000 |
| CCCCN(CCCC)Cc1nc(NCCc2ccccc2)c2ccc(-c3ncccc3C(F)(F)F)cc2n1 [Compound 145, [2-Dibutylaminomethyl-7-(3-trifluoromethyl-pyridin-2-yl)-quinazolin-4-yl]-phenethyl-amine] |  | ≤ 1000 |
| CCCCN(CCCC)Cc1nc(NCCc2ccccc2C)c2ccc(-c3ncccc3C(F)(F)F)cc2n1 [Compound 146] |  | ≤ 1000 |
| C=C(C)CN(CC)Cc1nc(NCCc2ccccc2)c2ccc(-c3ncccc3C(F)(F)F)cc2n1 [Compound 154, [2-{[Ethyl-(2-methyl-allyl)-amino]-methyl}-7-(3-trifluoromethyl-pyridin-2-yl)-quinazolin-4-yl]-phenethyl-amine] |  | ≤ 1000 |
